From ChEMBL document CHEMBL1128162, “Synthesis and binding properties of myo-inositol 4,5,6-tris(phosphate) an analogue of myo-inositol 1,4,5-tris(phosphate). Correlation with the ionization state of the molecules” (Bioorg Med Chem Lett, 1995)
Each block holds one compound with its values, some of them ahead of it.

Key:
[1] = molecular target: Inositol 1,4,5-trisphosphate receptor (Homo sapiens, UniProt Q14571+Q14573+Q14643); experiment: Binding affinity against Ins(4,5)P2 receptor prepared from purified guinea pig hepatocytes; design: species or system Cavia porcellus; details: hepatocyte
[2] = Binding affinity against Ins(1,4,5)P3 receptor prepared from purified rat brain cerebellum; assay type: tissue-based
[3] = Binding affinity against Ins(4,5,6)P3 receptor prepared from purified rat brain cerebellum; assay type: tissue-based

IC50 [1]: 50 µM
SMILES: O=P(O)(O)O[C@@H]1[C@@H](O)[C@H](O)[C@H](O)[C@H](O)[C@H]1OP(=O)(O)O

IC50 [2]: 0.01 µM
SMILES: O=P(O)(O)O[C@@H]1[C@H](O)[C@H](O)[C@@H](OP(=O)(O)O)[C@H](OP(=O)(O)O)[C@H]1O [INS(1,4,5)P3]

IC50 [3]: 9.3 µM
SMILES: O=P(O)(O)O[C@H]1[C@H](OP(=O)(O)O)[C@@H](O)[C@@H](O)[C@@H](O)[C@@H]1OP(=O)(O)O
